Tested on: 945468-187-T-J2-PDC spheroids viability
Test: Anticancer human tumor 945468-187-T-J2-PDC patient-derived rectal carcinoma cell line growth inhibition [PI3K]
Settings: spheroids with HUVEC and MSC; for IC50: curve of first compound; for viability, T/C: stronger effect = lower value; active = viability on the fitted dose curve at most 10% of control; inactive = the rest
Source text: Combinatorial screen of targeted agents with the PI3K inhibitors inavolisib, alpelisib, duvelisib, and copanlisib in multi-cell type tumor spheroids
A high-throughput screen of multi-cell type tumor spheroids was designed to identify active combinations of targeted small molecules and PI3K pathway inhibitors. Complex spheroids include a stromal component modeled by human endothelial cells (HUVEC) and fibroblasts modeled by human mesenchymal stem cells (MSCs). The concentration ranges selected for each drug and investigational agent were based upon clinically achievable concentrations if the clinical Cmax of the agent was known.
Compounds. The drugs and investigational agents: inavolisib (NSC800729), alpelisib (NSC765974), duvelisib (NSC772469), copanlisib (NSC816437), ipatasertib (NSC767898), afuresertib (NSC778305), talazoparib (NSC767125), sapanisertib (NSC764658), selumetinib (NSC741078), tovorafenib (DAY101, NSC766906), vemurafenib (NSC761431), ravoxertinib (NSC781343), sotorasib (NSC818433), MRTX1133 (NSC 836407), abemaciclib (NSC 768073), palbociclib (NSC758247), venetoclax (NSC 766270), SY5609 (NSC837396), enzalutamide (NSC755605), and darolutamide (NSC825331), were obtained from the National Cancer Institute (NCI) Developmental Therapeutics Program Chemical Repository. The FDA-approved anticancer drug set is available from the NCI Developmental Therapeutics Program. […] The stock solutions were prepared in dimethyl sulfoxide (DMSO, Sigma-Aldrich, St. Louis, MO, cat. D2650) at 800-fold the tested concentration and stored at -70 degrees C prior to their use. All drugs and investigational agents were tested over a range starting from a high concentration at or near the clinical Cmax and decreasing in half-log increments. If the clinical Cmax for an agent had not been determined, the highest concentration tested was 10 microM.
Cell Culture. All cells were maintained in an incubator at 37 degrees C and 5% CO2 with 95% humidity. The PDC lines were cultured according to standard operating procedures established by the NCI PDMR (https://pdmr.cancer.gov/sops/default.htm). All PDCs were thawed and cultured in Matrigel-coated flasks prepared with a working solution of 1X Ham's F-12 nutrient mix, without supplementation (Invitrogen, Waltham, MA, cat. 11765054), 100 U/mL penicillin-streptomycin (Invitrogen, cat. 15140122), and 2.5% Matrigel (Corning Inc., Corning, NY, cat. 354248) for the first three passages. The 354836-022-R-J1-PDC, 475296-252-R-J1-PDC, and 997726-040-R-J2-PDC lines were cultured in 6A media, which includes advanced DMEM/F-12 (Thermo Fisher Scientific, cat. 12634028), 10 mM HEPES (Thermo Fisher Scientific, cat. 15630080), 1X GlutaMAX supplement (Thermo Fisher Scientific, cat. 35050061), 0.1 mg/mL primocin (InvivoGen, San Diego, CA, cat. ant-pm-2), 10% defined fetal bovine serum, heat inactivated (HyClone Laboratories Inc., Logan, UT, cat. SH30070.03HI), 50% L-WRN conditioned media (ATCC, cat. CRL-3276), 1.25 mM N-Acetyl-L-cysteine (Sigma-Aldrich, cat. A9165), 10 mM nicotinamide (Sigma-Aldrich, cat. N0636), 1X B-27 supplement (Thermo Fisher Scientific, cat. 17504044), 1X N-2 supplement (Thermo Fisher Scientific, cat. 17502048), and 10 microM Y-27632 dihydrochloride (Tocris Bioscience, Bristol, United Kingdom, cat. 1254). The 624824-186-R-J2-PDC line was cultured in 6C/Colon 1B media, which includes all 6A media components plus 50 ng/mL human EGF recombinant protein (Thermo Fisher Scientific, cat. PHG0311). […]
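Also: spheroids exposed to compounds for seven days before reading.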

CC(=O)c1c(C)c2cnc(Nc3ccc(N4CCNCC4)cn3)nc2n(C2CCCC2)c1=O + CC(Nc1ccc2c(c1)OCCn1cc(N3C(=O)OCC3C(F)F)nc1-2)C(N)=O
inactive: viability, T/C (second compound 0.00316 µM, first compound 0.000316 µM) 91.5% | viability, T/C (second compound 0.00316 µM, first compound 0.001 µM) 98.4% | viability, T/C (second compound 0.00316 µM, first compound 0.00316 µM) 73.9% | viability, T/C (second compound 0.00316 µM, first compound 0.01 µM) 114% | viability, T/C (second compound 0.00316 µM, first compound 0.0316 µM) 129% | viability, T/C (second compound 0.00316 µM, first compound 0.1 µM) 128% | viability, T/C (second compound 0.01 µM, first compound 0.000316 µM) 73.9% | viability, T/C (second compound 0.01 µM, first compound 0.001 µM) 109% | viability, T/C (second compound 0.01 µM, first compound 0.00316 µM) 127% | viability, T/C (second compound 0.01 µM, first compound 0.01 µM) 83.5% | viability, T/C (second compound 0.01 µM, first compound 0.0316 µM) 92.8% | viability, T/C (second compound 0.01 µM, first compound 0.1 µM) 114% | viability, T/C (second compound 0.0316 µM, first compound 0.000316 µM) 91% | viability, T/C (second compound 0.0316 µM, first compound 0.001 µM) 101% | viability, T/C (second compound 0.0316 µM, first compound 0.00316 µM) 101% | viability, T/C (second compound 0.0316 µM, first compound 0.01 µM) 87.3% | viability, T/C (second compound 0.0316 µM, first compound 0.0316 µM) 86.2% | viability, T/C (second compound 0.0316 µM, first compound 0.1 µM) 105% | viability, T/C (second compound 0.1 µM, first compound 0.000316 µM) 92.5% | viability, T/C (second compound 0.1 µM, first compound 0.001 µM) 144% | viability, T/C (second compound 0.1 µM, first compound 0.00316 µM) 84.2% | viability, T/C (second compound 0.1 µM, first compound 0.01 µM) 101% | viability, T/C (second compound 0.1 µM, first compound 0.0316 µM) 107% | viability, T/C (second compound 0.1 µM, first compound 0.1 µM) 100% | viability, T/C (second compound 0.316 µM, first compound 0.000316 µM) 81.3% | viability, T/C (second compound 0.316 µM, first compound 0.001 µM) 87% | viability, T/C (second compound 0.316 µM, first compound 0.00316 µM) 79% | viability, T/C (second compound 0.316 µM, first compound 0.01 µM) 78.1% | viability, T/C (second compound 0.316 µM, first compound 0.0316 µM) 85.3% | viability, T/C (second compound 0.316 µM, first compound 0.1 µM) 73.1% | viability, T/C (second compound 1 µM, first compound 0.000316 µM) 90.3% | viability, T/C (second compound 1 µM, first compound 0.001 µM) 74.5% | viability, T/C (second compound 1 µM, first compound 0.00316 µM) 70.8% | viability, T/C (second compound 1 µM, first compound 0.01 µM) 72% | viability, T/C (second compound 1 µM, first compound 0.0316 µM) 71.2% | viability, T/C (second compound 1 µM, first compound 0.1 µM) 81.4%
> 100 nM: IC50 (second compound 0.00316 µM) | IC50 (second compound 0.01 µM) | IC50 (second compound 0.0316 µM) | IC50 (second compound 0.1 µM) | IC50 (second compound 0.316 µM) | IC50 (second compound 1 µM)

Reference: PubChem BioAssay AID1963972 (Molecular Pharmacology Branch, DTP, NCI, 2024)
